Key:
[1] = Evaluation of dissolvability (saturated solution in organic solvent); type: physicochemical; conditions: reflux 10 min, cooled to room temperature, left 16 hours, filtrated
Description: Each of the compounds obtained in Examples 1, 3, 5, 6, 7, 8, 9, 10, 11 and 12 and the corresponding specific compounds (24) to (33) was added to toluene, THF, anisole or chloroform (each: […]) until insoluble matter was found. The resultant mixture was stirred for 10 min under reflux of the solvent and cooled to room temperature, followed by stirring for 1 hour. After the mixture had been left to stand still for 16 hours, the supernatant was filtrated with a 0.2 μm PTFE filter to obtain a saturated solution. The obtained solution was dried under reduced pressure to calculate the dissolvability of the compound to each solvent.
The evaluation criteria in Table 1 are as follows.
A: 0.5% by mass≦Dissolvability B: 0.1% by mass≦Dissolvability<0.5% by mass C: 0.005% by mass≦Dissolvability<0.1% by mass D: Dissolvability<0.005% by mass

[2] = Solubility of annealed thin film in solvents; type: physicochemical; conditions: chloroform, THF, toluene, etc. at 25° C.; film after annealing 30 min at 150° C.
Description: Each (5 mg) of Ex. 1 compound and Ex. 2 compound synthesized in Synthesis Examples 1 and 2 was dissolved in THF, so that the concentration of the compound became 0.1% by mass, and the mixture was filtrated using a 0.2 μm-filter to prepare a solution. Onto a N-type silicon substrate having a 300 nm-thick thermally-oxidized film, which had been soaked in concentrated sulfuric acid for 24 hours, 100 μL of the prepared solution was added dropwise with a pipette, and a […] liquid droplet of the prepared solution was jetted 50 times using an inkjet apparatus (head; product of Ricoh Printing Systems, Ltd.). The thus-treated substrate was covered with a petri dish and left to stand still until the solvent was evaporated to thereby form a thin film. […] Next, the thin film was subjected to annealing for 30 min at 150° C. in an argon atmosphere.
After annealing, a plurality of colored domains were observed under the polarization microscope, and it was confirmed that a smooth and crystalline film was obtained. These films were obtained because each of Ex. 1 compound and Ex. 2 compound serving as precursors lost an ester group (i.e., a soluble group) and converted to Compound 24 having stronger intermolecular interaction, and became crystalline in the film. The thin film was insoluble in chloroform, THF, toluene, etc. at 25° C.

Dissolvability, solvent THF [1]	Dissolvability, solvent Toluene [1]	solubility of thin film [2]	SMILES	Dissolvability, solvent Anisole [1]
D (Dissolvability<0.005% by mass)	D (Dissolvability<0.005% by mass)	insoluble	c1ccc2cc(-c3cc4sc(-c5ccc6ccccc6c5)cc4s3)ccc2c1 [Compound (24)]	D (Dissolvability<0.005% by mass)
D (Dissolvability<0.005% by mass)	D (Dissolvability<0.005% by mass)		c1ccc2c(c1)ccc1c3cc4sc5c6ccccc6ccc5c4cc3sc21 [Compound (25)]	D (Dissolvability<0.005% by mass)
D (Dissolvability<0.005% by mass)	D (Dissolvability<0.005% by mass)		c1cc2ccc3cc4ccc5cc6c(ccc7cc8ccc9cccc%10ccc(c76)c8c9%10)cc5c4c4ccc(c1)c2c34 [Compound (28)]	D (Dissolvability<0.005% by mass)
D (Dissolvability<0.005% by mass)	D (Dissolvability<0.005% by mass)		C(#Cc1cc2sc3cc4c(cc3c2s1)sc1cc(C#Cc2ccc3ccccc3c2)sc14)c1ccc2ccccc2c1 [Compound (30)]	D (Dissolvability<0.005% by mass)
A (0.5% by mass≦Dissolvability)	A (0.5% by mass≦Dissolvability)		COC1CC=Cc2ccc(-c3cc4sc(-c5ccc6c(c5)C(OC)CC=C6)cc4s3)cc21 (stereo not shown) [Ex. 3 compound]	B (0.1% by mass≦Dissolvability<0.5% by mass)
A (0.5% by mass≦Dissolvability)	A (0.5% by mass≦Dissolvability)		CC(C)(C)C(=O)OC1Cc2cc3c(cc2-c2ccc4ccccc4c21)CC(OC(=O)C(C)(C)C)c1c-3ccc2ccccc12 (stereo not shown) [Ex. 8 compound]	A (0.5% by mass≦Dissolvability)
A (0.5% by mass≦Dissolvability)	A (0.5% by mass≦Dissolvability)		CCCCCC(=O)OC1Cc2cc(C#Cc3ccccc3)ccc2-c2ccc(C#Cc3ccccc3)cc21 (stereo not shown) [Ex. 12 compound]	A (0.5% by mass≦Dissolvability)

Second part, the compound before the results:

SMILES	Dissolvability, solvent THF [1]	Dissolvability, solvent Toluene [1]	solubility of thin film [2]	Dissolvability, solvent Anisole [1]
c1ccc2c(c1)ccc1cc3ccc4c5c(ccc6ccccc65)cc5ccc(c12)c3c54 [Compound (26)]	D (Dissolvability<0.005% by mass)	D (Dissolvability<0.005% by mass)		D (Dissolvability<0.005% by mass)
c1ccc2c(c1)ccc1c3cc4ccc5c6ccccc6ccc5c4cc3ccc21 [Compound (27)]	D (Dissolvability<0.005% by mass)	D (Dissolvability<0.005% by mass)		D (Dissolvability<0.005% by mass)
c1ccc2cc3c(ccc4c3ccc3c4ccc4c5ccc6cc7ccccc7cc6c5ccc43)cc2c1 [Compound (29)]	D (Dissolvability<0.005% by mass)	D (Dissolvability<0.005% by mass)		D (Dissolvability<0.005% by mass)
C(#Cc1ccc2c(ccc3cc(C#Cc4ccccc4)ccc32)c1)c1ccccc1 [Compound (31)]	B (0.1% by mass≦Dissolvability<0.5% by mass)	C (0.005% by mass≦Dissolvability<0.1% by mass)		C (0.005% by mass≦Dissolvability<0.1% by mass)
CCCCC(CC)C(=O)OC1Cc2ccccc2-c2c1cc1ccc3c4c(cc5ccc2c1c53)C(OC(=O)C(CC)CCCC)Cc1ccccc1-4 (stereo not shown) [Ex. 7 compound]	A (0.5% by mass≦Dissolvability)	B (0.1% by mass≦Dissolvability<0.5% by mass)		B (0.1% by mass≦Dissolvability<0.5% by mass)
CCCCCC(=O)OC1CC=Cc2cc3c(ccc4c3ccc3c4ccc4c5ccc6cc7c(cc6c5ccc43)C=CCC7OC(=O)CCCCC)cc21 (stereo not shown) [Ex. 10 compound]	A (0.5% by mass≦Dissolvability)	B (0.1% by mass≦Dissolvability<0.5% by mass)		B (0.1% by mass≦Dissolvability<0.5% by mass)
